What was measured:
Assay type in all cases: in vivo
Phakopsora pachyrhizi = test: Test D: Asian soybean rust, preventive spray on soybean seedlings; settings: 50 ppm, 100 = 100% disease control, 0 = no control
Summary of the method: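 Soybean seedlings sprayed to run-off with compound suspension (ppm, in 50/50 acetone/water with 250 ppm PEG400), inoculated next day with P. pachyrhizi spores, held 24 h saturated at 22°C then 8 days at 22°C. Visual rating 0-100% disease control relative to controls.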

[1] = tested on: Blumeria graminis f. sp. tritici; test: Test C: wheat powdery mildew, preventive spray on wheat seedlings; settings: 50 ppm, rated after 8 days, 100 = 100% disease control, 0 = no control
Summary of the method: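 Compound dissolved in acetone (3% of final volume), then suspended in 50/50 acetone/water with 250 ppm PEG400 and sprayed to run-off on wheat seedlings. Inoculated next day with B. graminis f. sp. tritici spore dust, kept 8 days at 20° C; visual rating, 100 = full control, 0 = none, relative to controls.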

Botrytis cinerea = test: Test E: tomato Botrytis, preventive spray on tomato seedlings; settings: 50 ppm, 100 = 100% disease control, 0 = no control
Summary of the method: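 Tomato seedlings sprayed to run-off with compound (ppm) in acetone/water with 250 ppm PEG400, then inoculated next day with B. cinerea spores. Held 48 h at 20 °C in saturated atmosphere, then 3 days at 24 °C. Visual rating 0–100% disease control relative to untreated controls.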

[2] = tested on: Puccinia recondita f. sp. tritici; test: Test B: wheat leaf rust, preventive spray on wheat seedlings; settings: 50 ppm, 100 = 100% disease control, 0 = no control relative to controls
Summary of the method: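 Compounds in acetone/water (50/50) with 250 ppm PEG400, sprayed to run-off on wheat seedlings at stated ppm; inoculated next day with P. recondita spores. Held 24 h saturated at 20° C., then 7 days in growth chamber at 20° C.; rating 0–100 = % disease control vs controls.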

Alternaria solani = test: Test F: tomato early blight, preventive spray on tomato seedlings; settings: 50 ppm, 100 = 100% disease control, 0 = no control
Summary of the method: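 Compounds in acetone/water (50/50) with 250 ppm PEG400, dosed in ppm, sprayed to run-off on tomato seedlings; next day inoculated with A. solani spores. Held 48 h saturated at 27° C, then 3 days at 20° C; visual rating 0–100% disease control relative to controls.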

Septoria tritici = test: Test A: wheat leaf blotch, preventive spray on wheat seedlings; settings: 50 ppm, 100 = 100% disease control, 0 = no control relative to controls
Summary of the method: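 Compounds were suspended in acetone/water (50/50) with 250 ppm PEG400 and sprayed to run-off on wheat seedlings. The next day the seedlings were inoculated with Septoria tritici spores, held 48 h at 24 °C in saturated humidity, then 17 days at 20 °C. Disease control was rated 0–100 relative to controls.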

Structure (SMILES) | Test D disease control rating (Asian soybean rust) (Phakopsora pachyrhizi) [%] | Test C disease control rating (wheat powdery mildew) [1] [%] | Test E disease control rating (tomato Botrytis) (Botrytis cinerea) [%] | Test B disease control rating (wheat leaf rust) [2] [%] | Test F disease control rating (tomato early blight) (Alternaria solani) [%] | Test A disease control rating (wheat leaf blotch) (Septoria tritici) [%] | pest or weed control at 50 ppm (Phakopsora pachyrhizi; Phakopsora pachyrhizi, read-out: Test D disease control rating (Asian soybean rust)) [%] | pest or weed control at 50 ppm ([1]; Blumeria graminis, 192 h, read-out: Test C disease control rating (wheat powdery mildew)) [%] | pest or weed control at 50 ppm (Botrytis cinerea; Botrytis cinerea, read-out: Test E disease control rating (tomato Botrytis)) [%] | pest or weed control at 50 ppm ([2]; read-out: Test B disease control rating (wheat leaf rust)) [%] | pest or weed control at 50 ppm (Alternaria solani; Alternaria solani, read-out: Test F disease control rating (tomato early blight)) [%] | pest or weed control at 50 ppm (Septoria tritici; Zymoseptoria tritici, read-out: Test A disease control rating (wheat leaf blotch)) [%]
CCc1nn(C)c(Nc2c(F)cccc2[N+](=O)[O-])c1-c1ccc(F)cc1F [Compound 46] | 0 | 99 | 99 | 98 | 81 | 100 | – | – | – | – | – | –
COc1ccc(-c2c(C)nn(C)c2Nc2c(F)cccc2[N+](=O)[O-])c(C)c1 [Compound 48] | 0 | 89 | 97 | 95 | 97 | 100 | – | – | – | – | – | –
Cc1nn(C)c(Nc2c(Cl)cccc2[N+](=O)[O-])c1-c1ccc(F)cc1Br [Compound 41] | 77 | 94 | 77 | 100 | 0 | 100 | – | – | – | – | – | –
COc1ccc(Nc2c(-c3ccc(F)cc3Br)c(C)nn2C)c([N+](=O)[O-])c1 [Compound 52] | 59 | 90 | 99 | 100 | 94 | 100 | – | – | – | – | – | –
CCc1nn(C)c(Nc2c(F)cc(F)cc2[N+](=O)[O-])c1-c1ccc(F)cc1F [Compound 50] | 0 | 100 | 92 | 98 | 98 | 100 | – | – | – | – | – | –
COc1ccc(Nc2c(-c3ccc(C#N)cc3F)c(C)nn2C)c([N+](=O)[O-])c1 [Compound 179] | 0 | 93 | 99 | 96 | 85 | 100 | – | – | – | – | – | –
Cc1cc(Cl)c(Nc2c(-c3c(F)cccc3Cl)c(C)nn2C)c([N+](=O)[O-])c1 [Compound 24] | 0 | 0 | 97 | 89 | 0 | 100 | – | – | – | – | – | –
Cc1nn(C)c(Nc2c(F)cc(Br)cc2[N+](=O)[O-])c1-c1ccc(F)cc1Cl [Compound 61, N-(4-bromo-2-fluoro-6-nitrophenyl)-4-(2-chloro-4-fluorophenyl)-1,3-dimethyl-1H-pyrazol-5-amine] | – | – | – | – | – | – | 84 | 99 | 99 | 100 | 99 | 100
Cc1nn(C)c(Nc2c(Cl)cccc2[N+](=O)[O-])c1-c1ccc(Cl)cc1Cl [Compound 133] | 0 | 0 | 97 | 86 | 0 | 100 | – | – | – | – | – | –
Cc1nn(C)c(Nc2c(F)cc(F)cc2[N+](=O)[O-])c1-c1c(F)cccc1Cl [Compound 39] | 73 | 99 | 88 | 100 | 99 | 100 | – | – | – | – | – | –
Cc1nn(C)c(Nc2c(Cl)cc(Cl)cc2[N+](=O)[O-])c1-c1ccc(F)cc1Cl [Compound 59] | 96 | 99 | 99 | 100 | 92 | 100 | – | – | – | – | – | –
Cc1nn(C)c(Nc2c(Cl)cc(F)cc2[N+](=O)[O-])c1-c1ccc(F)cc1F [Compound 67] | 69 | 89 | 98 | 100 | 33 | 100 | – | – | – | – | – | –
COc1ccc(Nc2c(-c3ccc(F)cc3Cl)c(C)nn2C)c([N+](=O)[O-])c1 [Compound 119] | 92 | 99 | 100 | 100 | 99 | 100 | – | – | – | – | – | –
COc1cc(F)c(-c2c(C)nn(C)c2Nc2ccc(F)cc2[N+](=O)[O-])c(F)c1 [Compound 83] | 0 | 99 | 98 | 91 | 99 | 99 | – | – | – | – | – | –
Cc1nn(C)c(Nc2ccc(OCC#N)cc2[N+](=O)[O-])c1-c1ccc(F)cc1Cl [Compound 29] | 81 | 87 | 99 | 98 | 26 | 97 | – | – | – | – | – | –
Cc1nn(C)c(Nc2c(F)cccc2[N+](=O)[O-])c1-c1ccc(Cl)cc1F [Compound 12] | 0 | 81 | 97 | 99 | 53 | 100 | – | – | – | – | – | –
Cc1cccc([N+](=O)[O-])c1Nc1c(-c2ccc(Cl)cc2Cl)c(C)nn1C [Compound 144] | 69 | 35 | 0 | 68 | 0 | 100 | – | – | – | – | – | –

Reference: patent US12398107B2, “Fungicidal nitroanilino substituted pyrazoles” (FMC Corporation, priority 2018, dated 2025)
